Patent publication US20230141863A1, “Small Molecule Inhibitors Targeting the Sodium Channel Tamoxifen Receptor and Uses Thereof” (Northwestern University, priority 2021, published 2023)
Where two headings read alike, the source gives them in different places.

Test system: DRG action potentials
Experiment: Current clamp recording of cultured DRG neuron action potentials
Format: cell-based, mouse
Settings: for IC50: Mus musculus, DRG neuron, 2-4 minutes of extracellular drug treatment
Description: FIG. 4. N-desmethyl tamoxifen inhibits DRG neuronal transmission. A) Exemplar action potentials recorded from an isolated DRG neuron in control and ND-Tam-treated conditions using a 1 second, 80 pA injection of current. After the experiment was complete, drug was washed out of the bath for five minutes and recovery from inhibition was retested. Consistent with previous reports, the resting membrane potential of the DRG neurons was −53.4±5 mV (Error is equal to S.D., n=109) (PMID: 8052416). B, C) The potency of ND-Tam inhibition on DRG action potential frequency and peak amplitude. Open symbols represent responses from individual cells while filled symbols represent average response per concentration. Error is equal to S.E.M. and the number of cells tested per treatment group is indicated within the parentheses. D, E) A comparison of the potency of cannabidiol (CBD) and carbamazepine (CBZ) inhibition on action potential frequency and peak amplitude. As done previously, drug concentration-INa inhibition relationships were fit to the Hill equation. Open symbols represent responses from individual cells while filled symbols represent average response per concentration. Error is equal to S.E.M. and the number of cells tested per treatment group is indicated within the parentheses.
FIG. 10. N-desmethyl tamoxifen inhibits spontaneous action potentials in sensory neurons. A) Exemplar spontaneous action potentials, recorded from a DRG neuron without injecting current, inhibited by 100 nM N-desmethyl tamoxifen. B) Morphology of a single spontaneous action potential in DRG neuron C) Inhibition of spontaneous action potential frequency by 100 nM ND-Tam (P=0.04). Open symbols represent responses from individual cells and filled symbols represent the average response. Error is equal to S.E.M. from 6 spontaneously firing DRG neurons.
DRG neurons act as a filter to electrical information from the periphery, required for the perception of pain, generated by several types of ion channels, including Navs. For that reason, the inventors compared the pharmacology of ND-Tam against cultured DRG action potentials recorded using current clamp (FIG. 4A). The inventors then compared DRG action potential frequency and amplitude before and after 2-4 minutes of extracellular drug treatment (FIG. 4A-C, FIG. 14). […] After exchanging the drug for control saline for 2 minutes, ND-Tam inhibition of action potential frequency and peak amplitude was persistent (FIG. 4A), which is consistent with the observed slow dissociation of the drug with sodium channels (FIG. 1B, D).
Dorsal root ganglia were isolated using a modified version of the previously described protocol (PMID: 26864470). All animal procedures were approved by the Institutional Animal Care and Use Committee at the Feinberg Medical School, Northwestern University. The spinal columns of 4-6-week-old […] or Nav1.8-Tomato mice (Nav1.8-Td) were removed and DRG neurons from all spinal levels were isolated for primary culture (PMID: 33827672, PMID: 31351964). The collected DRGs, containing both neuronal and non-neuronal cells, were acutely dissociated in DMEM with collagenase IV (2 mg/mL) for 30 minutes, followed by papain (25 U/mL) for 30 minutes. The cells were then triturated, filtered through a 40 μm cell strainer to remove non-dissociated cells, and washed with DMEM. […]

IC50 (80 pA of injected current, read-out: IC50 against action potential peak amplitude): 1300 nM
IC50 (elicited by 80 pA of injected current, read-out: IC50 against action potential firing frequency): 119 nM
Compound: CC/C(=C(\c1ccccc1)c1ccc(OCCNC)cc1)c1ccccc1 [ND-Tam, 2-[4-[(Z)-1,2-diphenylbut-1-enyl]phenoxy]-N-methylethanamine]
potency against action potential frequency and peak amplitude compared with CBZ and CBD (in words): more potent inhibitor of DRG action potential frequency and peak amplitude than CBZ and CBD
reduction of the frequency of spontaneous sensory neuron action potentials (100 nM, three-minute extracellular application, n=6, P=0.04): 91%
inhibition of action potential frequency and peak amplitude after washout (in words) (after exchanging the drug for control saline for 2 minutes): persistent
